Tests used:
Type in all cases: functional
[1] = tested on: MDA-MB-435; experiment: Growth inhibition of human MDA-MB-435 cells at 10 uM after 48 hrs by sulforhodamine B assay; settings: MDA-MB-435, 48 h, values are per cent of control
[2] = Growth inhibition of human Hs 578T cells at 10 uM after 48 hrs by sulforhodamine B assay; settings: values are per cent of control
[3] = Growth inhibition of human IGROV1 cells at 10 uM after 48 hrs by sulforhodamine B assay; settings: IGROV-1, 48 h, values are per cent of control
[4] = Growth inhibition of human HOP62 cells at 10 uM after 48 hrs by sulforhodamine B assay; settings: HOP-62, 48 h, values are per cent of control
[5] = Growth inhibition of human OVCAR4 cells at 10 uM after 48 hrs by sulforhodamine B assay; settings: OVCAR-4, 48 h, values are per cent of control
[6] = Growth inhibition of human UACC62 cells at 10 uM after 48 hrs by sulforhodamine B assay; settings: UACC-62, 48 h, values are per cent of control
[7] = Growth inhibition of human HCT116 cells at 10 uM after 48 hrs by sulforhodamine B assay; settings: HCT-116, 48 h, values are per cent of control
[8] = Growth inhibition of human LOXIMVI cells at 10 uM after 48 hrs by sulforhodamine B assay; settings: LOX IMVI, values are per cent of control
[9] = tested on: NCI-H460; experiment: Growth inhibition of human NCI-H460 cells at 10 uM after 48 hrs by sulforhodamine B assay; settings: NCI-H460, 48 h, values are per cent of control
[10] = tested on: K562; experiment: Growth inhibition of human K562 cells at 10 uM after 48 hrs by sulforhodamine B assay; settings: K562, 48 h, values are per cent of control
[11] = Growth inhibition of human SNB19 cells at 10 uM after 48 hrs by sulforhodamine B assay; settings: SNB-19, 48 h, values are per cent of control
[12] = tested on: MDA-MB-231; experiment: Growth inhibition of human MDA-MB-231 cells at 10 uM after 48 hrs by sulforhodamine B assay; settings: MDA-MB-231, 48 h, values are per cent of control
[13] = Growth inhibition of human DU145 cells at 10 uM after 48 hrs by sulforhodamine B assay; settings: DU-145, 48 h, values are per cent of control
[14] = Growth inhibition of human SF539 cells at 10 uM after 48 hrs by sulforhodamine B assay; settings: SF-539, 48 h, values are per cent of control
[15] = tested on: NCI-H522; experiment: Growth inhibition of human NCI-H522 cells at 10 uM after 48 hrs by sulforhodamine B assay; settings: NCI-H522, 48 h, values are per cent of control
[16] = Growth inhibition of human UO31 cells at 10 uM after 48 hrs by sulforhodamine B assay; settings: UO-31, 48 h, values are per cent of control
[17] = tested on: SN12C; experiment: Growth inhibition of human SN12C cells at 10 uM after 48 hrs by sulforhodamine B assay; settings: values are per cent of control
[18] = tested on: ACHN; experiment: Growth inhibition of human ACHN cells at 10 uM after 48 hrs by sulforhodamine B assay; settings: values are per cent of control
[19] = tested on: SK-MEL-28; experiment: Growth inhibition of human SK-MEL-28 cells at 10 uM after 48 hrs by sulforhodamine B assay; settings: SK-MEL-28, 48 h, values are per cent of control
[20] = Growth inhibition of human NCI-ADR-RES cells at 10 uM after 48 hrs by sulforhodamine B assay; settings: values are per cent of control
[21] = tested on: NCI-H322M; experiment: Growth inhibition of human NCI-H322M cells at 10 uM after 48 hrs by sulforhodamine B assay; settings: values are per cent of control
[22] = Growth inhibition of human SF268 cells at 10 uM after 48 hrs by sulforhodamine B assay; settings: SF-268, 48 h, values are per cent of control
[23] = tested on: T47D; experiment: Growth inhibition of human T47D cells at 10 uM after 48 hrs by sulforhodamine B assay; settings: values are per cent of control
[24] = tested on: A549; experiment: Growth inhibition of human A549/ATCC cells at 10 uM after 48 hrs by sulforhodamine B assay; settings: A549, 48 h, values are per cent of control
[25] = tested on: A498; experiment: Growth inhibition of human A498 cells at 10 uM after 48 hrs by sulforhodamine B assay; settings: A498, 48 h, values are per cent of control
[26] = Growth inhibition of human BT549 cells at 10 uM after 48 hrs by sulforhodamine B assay; settings: BT-549, 48 h, values are per cent of control
[27] = Growth inhibition of human SNB75 cells at 10 uM after 48 hrs by sulforhodamine B assay; settings: SNB-75, 48 h, values are per cent of control
[28] = tested on: SK-MEL-5; experiment: Growth inhibition of human SK-MEL-5 cells at 10 uM after 48 hrs by sulforhodamine B assay; settings: SK-MEL-5, 48 h, values are per cent of control
[29] = Growth inhibition of human OVCAR8 cells at 10 uM after 48 hrs by sulforhodamine B assay; settings: OVCAR-8, 48 h, values are per cent of control
[30] = tested on: M14; experiment: Growth inhibition of human M14 cells at 10 uM after 48 hrs by sulforhodamine B assay; settings: M14, 48 h, values are per cent of control
[31] = Growth inhibition of human Caki1 cells at 10 uM after 48 hrs by sulforhodamine B assay; settings: CAKI-1, 48 h, values are per cent of control
[32] = Growth inhibition of human SW620 cells at 10 uM after 48 hrs by sulforhodamine B assay; settings: SW-620, 48 h, values are per cent of control
[33] = Growth inhibition of human OVCAR5 cells at 10 uM after 48 hrs by sulforhodamine B assay; settings: OVCAR-5, 48 h, values are per cent of control
[34] = tested on: MDA-MB-468; experiment: Growth inhibition of human MDA-MB-468 cells at 10 uM after 48 hrs by sulforhodamine B assay; settings: MDA-MB-468, 48 h, values are per cent of control
[35] = Growth inhibition of human HCC2998 cells at 10 uM after 48 hrs by sulforhodamine B assay; settings: HCC 2998, 48 h, values are per cent of control
[36] = tested on: KM12; experiment: Growth inhibition of human KM12 cells at 10 uM after 48 hrs by sulforhodamine B assay; settings: KM12, 48 h, values are per cent of control
[37] = Growth inhibition of human COLO205 cells at 10 uM after 48 hrs by sulforhodamine B assay; settings: COLO 205, 48 h, values are per cent of control
[38] = Growth inhibition of human HCT15 cells at 10 uM after 48 hrs by sulforhodamine B assay; settings: HCT-15, 48 h, values are per cent of control
[39] = tested on: U-251; experiment: Growth inhibition of human U251 cells at 10 uM after 48 hrs by sulforhodamine B assay; settings: U-251, 48 h, values are per cent of control
[40] = Growth inhibition of human RXF393 cells at 10 uM after 48 hrs by sulforhodamine B assay; settings: RXF 393, 48 h, values are per cent of control

SMILES	growth, % of control at 10 µM [1] [%]	growth, % of control at 10 µM [2] [%]	growth, % of control at 10 µM [3] [%]	growth, % of control at 10 µM [4] [%]	growth, % of control at 10 µM [5] [%]	growth, % of control at 10 µM [6] [%]	growth, % of control at 10 µM [7] [%]	growth, % of control at 10 µM [8] [%]	growth, % of control at 10 µM [9] [%]	growth, % of control at 10 µM [10] [%]	growth, % of control at 10 µM [11] [%]	growth, % of control at 10 µM [12] [%]	growth, % of control at 10 µM [13] [%]	growth, % of control at 10 µM [14] [%]	growth, % of control at 10 µM [15] [%]	growth, % of control at 10 µM [16] [%]	growth, % of control at 10 µM [17] [%]	growth, % of control at 10 µM [18] [%]	growth, % of control at 10 µM [19] [%]	growth, % of control at 10 µM [20] [%]	other results
COc1ccc(/C(C#N)=C/c2ccc3c(c2)OCCO3)cc1OC	-17.6	16.3	49.5	36.9	69.3	43.7	22.3	44.9	12.4	11.6	53.2	63	20.7	5.6	-30.1	41.8	56.7	51.3	61.7	24.5	growth, % of control at 10 µM [21]: 34.5%; growth, % of control at 10 µM [22]: 53.2%; growth, % of control at 10 µM [23]: 31%; growth, % of control at 10 µM [24]: 40%; growth, % of control at 10 µM [25]: -4.1%; growth, % of control at 10 µM [26]: 19.2%; growth, % of control at 10 µM [27]: 2.2%; growth, % of control at 10 µM [28]: 16.8%; growth, % of control at 10 µM [29]: 30.1%; growth, % of control at 10 µM [30]: 19.7%; growth, % of control at 10 µM [31]: 17.6%; growth, % of control at 10 µM [32]: 15.5%; growth, % of control at 10 µM [33]: 73.5%; growth, % of control at 10 µM [34]: -11.4%; growth, % of control at 10 µM [35]: 60.1%; growth, % of control at 10 µM [36]: 30.6%; growth, % of control at 10 µM [37]: -1.3%; growth, % of control at 10 µM [38]: 31.6%; growth, % of control at 10 µM [39]: 19.9%; growth, % of control at 10 µM [40]: 14.9%
COc1ccc(/C=C(\C#N)c2ccc3c(c2)OCO3)cc1	-29.1	27.2	46.3	43.8	67.3	37.5	17.4	33.3	15.5	15.8	46	49.6	28.3	-13.8	-2.4	28	37.2	45.7	40.7	11.6	growth, % of control at 10 µM [21]: 35.7%; growth, % of control at 10 µM [22]: 38.5%; growth, % of control at 10 µM [23]: 35.8%; growth, % of control at 10 µM [24]: 32.3%; growth, % of control at 10 µM [25]: -6.2%; growth, % of control at 10 µM [26]: 30.3%; growth, % of control at 10 µM [27]: 2.2%; growth, % of control at 10 µM [28]: 16.4%; growth, % of control at 10 µM [29]: 26.7%; growth, % of control at 10 µM [30]: 10.5%; growth, % of control at 10 µM [31]: 24.8%; growth, % of control at 10 µM [32]: 19.6%; growth, % of control at 10 µM [33]: 49.6%; growth, % of control at 10 µM [34]: 1.2%; growth, % of control at 10 µM [35]: 49.4%; growth, % of control at 10 µM [36]: 30%; growth, % of control at 10 µM [37]: 11.9%; growth, % of control at 10 µM [38]: 17.8%; growth, % of control at 10 µM [39]: 16.5%; growth, % of control at 10 µM [40]: 23.3%
COc1ccc(/C=C(\C#N)c2ccc3c(c2)OCO3)cc1OC	96.1	114	96.9	97.6	110	114	105	101	106	94.8	105	106	104	103	94.5	88	103	111	116	102	growth, % of control at 10 µM [21]: 96.8%; growth, % of control at 10 µM [22]: 99.5%; growth, % of control at 10 µM [23]: 88.7%; growth, % of control at 10 µM [24]: 96.6%; growth, % of control at 10 µM [25]: 96.5%; growth, % of control at 10 µM [26]: 91.8%; growth, % of control at 10 µM [27]: 87.5%; growth, % of control at 10 µM [28]: 103%; growth, % of control at 10 µM [29]: 104%; growth, % of control at 10 µM [30]: 106%; growth, % of control at 10 µM [31]: 102%; growth, % of control at 10 µM [32]: 107%; growth, % of control at 10 µM [33]: 104%; growth, % of control at 10 µM [34]: 104%; growth, % of control at 10 µM [35]: 106%; growth, % of control at 10 µM [36]: 96.2%; growth, % of control at 10 µM [37]: 106%; growth, % of control at 10 µM [38]: 99.8%; growth, % of control at 10 µM [39]: 102%; growth, % of control at 10 µM [40]: 111%

From ChEMBL document CHEMBL3792365, “Dioxol and dihydrodioxin analogs of 2- and 3-phenylacetonitriles as potent anti-cancer agents with nanomolar activity against a variety of human cancer cells” (2016)
